pIC50: −log10 of the molar value. Values after ≈ are worked out from the molar mass of the structure shown. Read-outs that look alike come from different tables or passages of the source.
Columns and labels:
[1] = test system: Ba/F3 cells KRAS G12V; assay: Ba/F3 proliferation assay (KRAS G12V); assay type: cell-based; conditions: Mus musculus, BaF3, 72 h, AlamarBlue viability
Method: Ba/F3 cells are ordered from DSMZ (ACC300, Lot17) and grown in RPMI-1640 (ATCC 30-2001)+10% FCS+10 ng/mL IL-3 at 37° C. in 5% […] atmosphere. Plasmids containing KRASG12 mutants (i.e. […], G12C, G12V) are obtained from GeneScript. To generate KRASG12-dependent Ba/F3 models, Ba/F3 cells are transduced with retroviruses containing vectors that harbor KRASG12 isoforms. Platinum-E cells (Cell Biolabs) are used for retrovirus packaging. Retrovirus is added to Ba/F3 cells. To ensure infection, 4 μg/mL polybrene is added and cells are spinfected. Infection efficiency is confirmed by measuring GFP-positive cells using a cell analyzer. Cells with an infection efficiency of 10% to 20% are further cultivated and puromycin selection with 1 μg/mL is initiated. As a control, parental Ba/F3 cells are used to show selection status. Selection is considered successful when parental Ba/F3 cells cultures died. To evaluate the transforming potential of KRASG12 mutations, the growth medium is no longer supplemented with IL-3. Ba/F3 cells harboring the empty vector are used as a control. Approximately ten days before conducting the experiments, puromycin is left out.
For proliferation assays, Ba/F3 cells are seeded into 384-well plates at 1.5×1 (M cells/60 μL in growth media (RPMI-1640+10% FCS). Compounds (10 mM stock in DMSO) are added at logarithmic dose series using the ECHO acoustic liquid handler system (Beckman Coulter), normalizing for added DMSO and including DMSO controls. All compound treatments are performed in technical duplicates. For the TO time point measurement, untreated cells are analyzed at the time of compound addition. Treated cells are incubated for 72 h at 37° C. with 5% CO2 and cell viability is measured in the PerkinElmer Envision Multimode Reader using AlamarBlue™ (ThermoFisher) viability stain. Viability (stated as percent of control) is defined as relative fluorescence units RFU of each well divided by the RFU of cells in DMSO controls. IC50 values are determined from viability measurements by non-linear regression using a four-parameter model.

[2] = Solubility measurement (DMSO solution precipitation method); assay type: physicochemical; conditions: aqueous buffer, kinetic from dmso stock
Method: A 10 mM DMSO stock solution of a test compound is used to determine its aq. solubility. The DMSO solution is diluted with an aq. medium (McIlvaine buffer with pH=4.5 or 6.8) to a final concentration of 250 μM. After 24 h of shaking at ambient temperature a potentially formed precipitate is removed by filtration. The concentration of the test compound in the filtrate is determined by LC-UV methods by calibrating the signal to the signal of a reference solution with complete dissolution of the test compound in acetonitrile/water (1:1) with known concentration.

[3] = test system: MKN1 cells; assay: MKN1 CTG proliferation assay (120 h) (gastric cancer, wt amplified); assay type: cell-based; conditions: Homo sapiens, MKN-1
Method: (§1) MKN1 cells (JCRB0252) are dispensed into black 384-well plates, flat and clear bottom (Greiner, PNr. 781091) at a density of 200 cells per well in 60 μl RPMI-1640 ATCC-Formulation (Gibco #A10491)+10% FCS (fetal calf serum, HyClone, SH30084.03). Cells are incubated overnight at 37° C. in a humidified tissue culture incubator at 5% CO2. Compounds (10 mM stock in DMSO) are added at logarithmic dose series using the ECHO acoustic liquid handler system (Beckman Coulter), normalizing for added DMSO and including DMSO controls. All compound treatments are performed in technical duplicates. For the TO time point measurement, untreated cells are analyzed at the time of compound addition. Plates are incubated for 120 h, and cell viability is measured using CellTiter-Glo luminescent cell viability reagent (Promega product code G7570). Viability (stated as percent of control) is defined as relative luminescence units RLU of each well divided by the RLU of cells in DMSO controls. IC50 values are determined from viability measurements by non-linear regression using a four-parameter model.
(§2) IC50 values of representative compounds according to the invention measured with these assays in the indicated cell lines are presented in Table 46.

[4] = test system: NCI-H727 cells; assay: NCI-H727 CTG proliferation assay (120 h) (lung cancer, G12V); assay type: cell-based; conditions: Homo sapiens
Method: as §1, with “NCI-H727” for “MKN1”, “(ATCC No. CRL-5815)” for “(JCRB0252)”, “500” for “200”, “RPMI” for “RPMI-1640”, “(PAN P04-18047)+10%” for “(Gibco #A10491)+10%”
as §2

[5] = Plasma protein binding assay (PPB), equilibrium dialysis; assay type: in vitro ADME; conditions: bovine, 10% FCS in PBS, read-out: PPB 10% FCS (% fu)
Method: Binding of test compounds to plasma was determined using equilibrium dialysis (ED) and quantitative mass spectrometry interfaced with liquid chromatography (LC-MS). In brief, ED was performed with dialysis devices consisting of two chambers separated by a semipermeable membrane with a molecular weight cut-off of 5-10 kg/mol. One chamber was filled with 10% FCS in PBS containing 1-10 μmol/L test compound and the other chamber was filled with phosphate-buffer saline (PBS) with or without dextran. The dialysis chamber was incubated for 3-5 hours at 37° C. After incubation, protein was precipitated from aliquots of each chamber and the concentration of test compound in the supernatant of the plasma-containing compartment (cserum) and of the buffer-containing compartment (cbuffer) was determined by LC-MS. The fraction of unbound test compound (not bound to plasma) (f) was calculated according to the following equation: […]

[6] = McIlvaine buffer pH 4.5, 24 h, read-out: solubility pH 4.5
[7] = McIlvaine buffer pH 6.8, 24 h, read-out: solubility pH 6.8

| SMILES | pIC50 [1] | solubility at 24 h [2, 6] | solubility at 24 h [2, 7] | pIC50 [3] | pIC50 [4] | fraction unbound [5] |
| --- | --- | --- | --- | --- | --- | --- |
| C[C@H](Oc1nc(-c2onc3c2CCC[C@@]32CCCc3sc(N)c(C#N)c32)nc2c1n(C)c(=O)n2[C@H]1CCOC1)[C@@H]1CCCN1C [I-9] | 7.70 | > 149 µg/mL | > 144 µg/mL | 6.87 | 6.86 | 0.25 |
| C[C@H](Oc1nc(-c2onc3c2CCC[C@@]32CCCc3sc(N)c(C#N)c32)nc2c1n(C)c(=O)n2C1CCOCC1)[C@@H]1CCCN1C [I-10] | 7.80 | > 151 µg/mL | > 148 µg/mL | 6.96 | 6.97 | 0.24 |
| C[C@H](Oc1nc(-c2onc3c2CCC[C@@]32CCCc3sc(N)c(C#N)c32)nc2c1n(C)c(=O)n2[C@H]1CCCOC1)[C@@H]1CCCN1C [I-11] | 6.89 | > 149 µg/mL | 99 µg/mL (≈ 154 µM) | 6.48 | 6.30 | 0.06 |
| C[C@H](Oc1nc(-c2onc3c2CCC[C@@]32CCCc3sc(N)c(C#N)c32)nc2c1n(C)c(=O)n2[C@@H]1CCCOC1)[C@@H]1CCCN1C [I-12] | 8.70 | > 155 µg/mL | > 142 µg/mL | 8.00 | 8.52 | 0.18 |
| C[C@H](Oc1nc(-c2onc3c2CCC[C@@]32CCCc3sc(N)c(C#N)c32)nc2c1[nH]c(=O)n2[C@@H]1CCCOC1)[C@@H]1CCCN1C [I-13] | 7.80 | > 148 µg/mL | > 131 µg/mL | 7.96 | 7.89 | 0.18 |
| CO[C@@H]1C[C@@H]([C@H](C)Oc2nc(-c3onc4c3CCC[C@@]43CCCc4sc(N)c(C#N)c43)nc3c2n(C)c(=O)n3[C@@H]2CCCOC2)N(C)C1 [I-14] | 8.70 | > 163 µg/mL | < 1 µg/mL | 7.32 | 8.22 | 0.15 |
| C[C@H](Oc1nc(-c2onc3c2CCC[C@@]32CCCc3sc(N)c(C#N)c32)nc2c1n(C)c(=O)n2C12COC(C1)C2)[C@@H]1CCCN1C [I-15] | 7.96 | > 150 µg/mL | > 153 µg/mL | 7.33 | 7.85 | 0.13 |
| CO[C@H]1C[C@H](n2c(=O)n(C)c3c(O[C@@H](C)[C@@H]4CCCN4C)nc(-c4onc5c4CCC[C@@]54CCCc5sc(N)c(C#N)c54)nc32)C1 [I-16] | 6.65 | > 154 µg/mL | > 138 µg/mL | 6.45 | 6.82 | 0.13 |
| C[C@H](Oc1nc(-c2onc3c2CCC[C@@]32CCCc3sc(N)c(C#N)c32)nc2c1n(C)c(=O)n2[C@H]1CC2CCC1O2)[C@@H]1CCCN1C (stereo partly drawn) [I-17] | 7.70 | > 155 µg/mL | > 148 µg/mL | 6.49 | 7.32 | 0.04 |

Source: patent publication US20250019385A1, “SPIROCYCLIC ANNULATED 2-AMINO-3-CYANO THIOPHENES AND DERIVATIVES FOR THE TREATMENT OF CANCER” (Boehringer Ingelheim International GmbH, priority 2023, published 2025)
